System: hippocampal neurons
Assay: Light-driven synaptic transmission from ChR2-expressing presynaptic neurons
Assay type: cell-based, rat
Procedure: Spiking was measured while injecting current to keep the voltage of the cell at approximately −65 mV (holding current ranging from 0 pA to 200 pA). For the synaptic transmission experiments, we patched nonfluorescent neurons near ChR2-expressing neurons, immersed in Tyrode solution containing either 20 μM gabazine to isolate just the excitatory postsynaptic response, or in 5 μM NBQX to isolate just the inhibitory postsynaptic response. To confirm whether the evoked potentials were indeed synaptically driven, after synaptic stimulation we blocked all postsynaptic receptors with solution containing both 20 μM gabazine and 5 μM NBQX, and rephotostimulated.

Compound | effect on light-driven excitatory synaptic responses (glutamatergic blocker, FIG. 4(c)) | effect on light-driven inhibitory synaptic responses (GABAergic transmission blocker, FIG. 4(d))
NS(=O)(=O)c1cccc2c1c([N+](=O)[O-])cc1nc(O)c(O)nc12 [NBQX] | abolishes these synaptic responses | –
COc1ccc(-c2ccc(=N)n(CCCC(=O)O)n2)cc1 [gabazine] | – | abolishes these synaptic responses

Reference: patent publication US10422803B2, “Light-activated cation channel and uses thereof” (The Board of Trustees of the Leland Stanford Junior …, priority 2005, dated 2019)
